In patent EP0329902A1, “Use of quinolizinone and quinolizine derivatives in the manufacture of medicaments for the treatment of psychosis” (MERRELL DOW PHARMACEUTICALS INC., priority 1988, dated 1989):
Where a name gives a salt, the structure may show the parent alone.

Test system: Von Bezold-Jarisch Reflex induced by 5-HT
Assay: Von Bezold-Jarisch Reflex induced by 5-HT injected intravenously
Assay type: in vivo
Conditions: rat
From the text: The activity of these compounds agianst 5-HT can be assessed in vivo by measurement of the effect of the compound on the Von Bezold-Jarisch Reflex induced by 5-HT injected intravenously into the rat (see Paintal A.S., Physiol. Rev. 53, 159-227, 1973; J.R. Fozard, Naunyn-Schmiedeberg's Arch. Pharmacol., 326, 1984, 36-44). The transient cardiac slowing arises from an increased afferent vagus activity arising from stimulation by 5-HT of sensory afferent fibres in and around the heart.

[1] = doses of 0.01-0.1 mg/kg given intravenously
[2] = doses of 0.25-1 mg/kg given orally

Row | SMILES | suppression of the Von Bezold-Jarisch Reflex response [1] | suppression of the Von Bezold-Jarisch Reflex response [2]
1 | Cc1cc(C)cc(C(=O)OC2CC3CC4CC(C2)N3CC4=O)c1 (stereo not drawn) [endo-8-(3,5-dimethylbenzoyloxy)hexahydro-2,6-methano-2H-quinolizin-3(4H)-one] | suppressed the response dose-dependently | suppressed the response dose-dependently
2 | O=C(OC1CC2CC3CC(C1)N2CC3=O)c1c[nH]c2ccccc12 (stereo not drawn) [endo-hexahydro-8-(3-indolylcarbonyloxy)-2,6-methano-2H-quinolizin-3(4H)one hydrochloride] | suppressed the response dose-dependently | suppressed the response dose-dependently
